Structures are written as SMILES. Like-named read-outs stand apart in the source and are kept apart here. Some results are limits rather than exact numbers.

Drawing on patent US20260207565A1, “COMPOUNDS THAT INHIBIT PKMYT1” (Exelixis, Inc., priority 2022, published 2026), this text covers IC50 for 24 compounds.

One test concerns the target T1, PKMYT1 (Homo sapiens, UniProt Q99640).
T1 construct: PKMYT1 (93 kD, full length, N-terminal GST tag from Signal Chem); GST (N); purchased Signal Chem
T1 sequence (Q99640 1-499): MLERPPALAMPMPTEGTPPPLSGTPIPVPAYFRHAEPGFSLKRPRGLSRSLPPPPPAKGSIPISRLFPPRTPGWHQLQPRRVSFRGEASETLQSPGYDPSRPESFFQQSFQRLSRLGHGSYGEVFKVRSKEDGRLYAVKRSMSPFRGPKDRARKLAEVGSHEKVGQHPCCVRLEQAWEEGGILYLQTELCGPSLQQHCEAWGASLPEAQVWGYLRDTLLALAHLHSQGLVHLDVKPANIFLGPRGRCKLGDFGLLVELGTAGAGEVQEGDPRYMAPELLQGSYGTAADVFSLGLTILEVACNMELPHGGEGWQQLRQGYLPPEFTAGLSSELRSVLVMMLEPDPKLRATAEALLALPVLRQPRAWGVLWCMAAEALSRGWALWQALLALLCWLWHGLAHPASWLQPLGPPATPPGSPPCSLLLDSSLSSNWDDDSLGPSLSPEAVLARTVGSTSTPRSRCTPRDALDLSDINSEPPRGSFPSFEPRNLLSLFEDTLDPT
The test is described as follows: ADP-Glo PKMYT1 ATP-depletion assay. As to conditions: 50 nM PKMYT1, 13.3 nM CDK1, 88 μM ATP, 120 minutes at RT, read-out: Biochemical IC50. As for the experimental part:
(§1) Biochemical IC50 values were determined via ADP-Glo™ assay. Cellular IC50 values were determined via AlphaLISA assay.
ADP-Glo™ PKMYT1 ATP-depletion assay. The activity of PKMYT1 is measured using a luciferase-luciferin based ATP detection reaction to quantify ATP depletion resulting from kinase-catalyzed phosphoryl transfer to CDK1 or autophosphorylation of PKMYT1. The ADP generated as a byproduct of the reaction is converted to ATP and used to drive a luciferase reaction. Test compounds were dissolved in DMSO and dispensed into Corning 3824 384-well plates prior to the experiment such that the final DMSO concentration was <10%. To the compounds was added 3 μL of PKMYT1 (93 kD, full length, N-terminal GST tag from Signal Chem). The reaction was started by the addition of 2 μL of CDK1 (58 kDa, full length, N-terminal GST tag from Signal Chem) and ATP in assay buffer (50 mM Hepes, 40 mM NaCl, 10 mM MgCl2, 1 mM DTT, 0.1 mg/mL BSA, 2.5 mM MnCl2). Final assay concentrations were 50 nM PKMYT1, 13.3 nM CDK1, and 88 μM ATP. Plates were centrifuged for 1 minute at 1000 RPM and incubated at RT for 120 minutes. After the incubation period, ADP-Glo™ reagent was added and the plates were incubated for another 40 minutes before finally adding the kinase detection reagent, 30 minutes after the addition, plates were placed on a PHERAstar® plate reader and read using the Luminescence Protocol, integration time at 0.5 seconds.

The test system of test [1] is phosphorylation of CDK1 at Thr14 in HCC1806 cells. Put plainly: Cell lysate AlphaLISA assay measuring inhibition of phosphorylation of CDK1 Thr14. Format: cell-based. As to conditions: compounds incubated 4 hours, AlphaLISA SureFire Ultra CDK1 Thr14, read-out: Cellular IC50. The procedure: as §1
Cell lysate AlphaLISA® assay measuring inhibition of phosphorvlation of CDK1 Thr14. Inhibition of phosphorylation of CDK1 at Thr14 was determined using AlphaLISAn SureFire® Ultra™ Kit from Perkin Elmer (ALSU-PCDK1-A10K). HCC1806 cells were seeded at 2K cells per well (50 μl/well) in 384-well plates (Corning 3570) and stored overnight at 37° C. and 5% CO2. The following day, the compounds dissolved in DMSO were introduced to the cells and incubated for 4 hours at 37° C. and 5% CO2. The cells were then washed with PBS using Blue® Washer and 10 μl of lysis buffer containing protease inhibitor was added. The plate was placed on an orbital shaker (at 4° C.) for 30 minutes and stored overnight at −80° C. for complete lysing. The next day, the plates were thawed at room temperature for at least 30 min. Reagents were prepared in a dimmed light setting (<100 lumens). The assay was run by first adding 5 μl of the acceptor mix (reaction buffer 1: reaction buffer 2:activation buffer:acceptor beads 47:47:4:2), covering the plate with foil, shaking for 2 minutes, and incubating at RT for 60 minutes. The donor mix (dilution buffer:donor beads 47:3) was then added at 5 μl per well, placed on the shaker for 2 minutes and incubated at RT for 60 minutes before reading the plates on a PHERAstar® plate reader. The results were normalized to DMSO (0% Inhibition) and 3 μM of reference compound.

Take `Cc1ccc(O)c(C)c1-c1c(N)c(C(N)=O)cc2c1nc(C(F)F)n2C(F)F` (atropisomer, axis not shown; (P)) [Compound 94, (P)-6-amino-2,3-bis(difluoromethyl)-7-(3-hydroxy-2,6-dimethyl-phenyl)benzimidazole-5-carboxamide]: the IC50 is < 50 nM on PKMYT1 and < 50 nM in test [1] (Homo sapiens, HCC1806, 4 h). As for `Cc1ccc(O)c(C)c1-c1cc(C(N)=O)nc2cnn(C)c12` [Compound 18, 7-(3-hydroxy-2,6-dimethylphenyl)-1-methyl-pyrazolo[4,3-b]pyridine-5-carboxamide], the IC50 on PKMYT1 is 1000 to 5000 nM; in test [1] (Homo sapiens, HCC1806, 4 h), ≥ 5000 nM. Taken in the same sequence, the figures for `Cc1c(F)cncc1-c1c(N)c(C(N)=O)nc2c1c(C#N)cn2C` [Compound 8, 5-Amino-3-cyano-4-(5-fluoro-4-methylpyridin-3-yl)-1-methyl-1H-pyrrolo[2,3-b]pyridine-6-carboxamide] were < 50 nM and 50 to 500 nM.

As for `Cc1c(O)cccc1-c1c(N)c(C(N)=O)nc2c1c(-c1c[nH]nn1)cn2C` (atropisomer, axis not shown; (M)) [Compound 90, (M)-5-amino-4-(3-hydroxy-2-methylphenyl)-1-methyl-3-(1H-1,2,3-triazol-4-yl)-1H-pyrrolo[2,3-b]pyridine-6-carboxamide], the IC50 on PKMYT1 was < 50 nM; in test [1] (Homo sapiens, HCC1806, 4 h), < 50 nM. As for `Cc1c(O)cccc1-c1cc(C(N)=O)nc2c1c(C#N)cn2C` [Compound 28, 3-cyano-4-(3-hydroxy-2-methylphenyl)-1-methyl-pyrrolo[2,3-b]pyridine-6-carboxamide], the IC50 was in the range of 50 to 500 nM at PKMYT1 and 500 to 1000 nM in test [1] (Homo sapiens, HCC1806, 4 h). Taken in the same sequence, the figures for `Cc1ccc(O)c(C)c1-c1c(N)c(C(N)=O)cc2c1nc(C(F)F)n2-c1ncccc1F` (atropisomer, axis not shown; (P)) [Compound 95, (P)-6-amino-2-(difluoromethyl)-3-(3-fluoro-2-pyridyl)-7-(3-hydroxy-2,6-dimethyl-phenyl)benzimidazole-5-carboxamide] were < 50 nM and < 50 nM. Consider `Cc1c(O)cccc1-c1c(N)c(C(N)=O)nc2c1c(C(N)=O)nn2C` [Compound 55, 5-amino-4-(3-hydroxy-2-methylphenyl)-1-methyl-1H-pyrazolo[3,4-b]pyridine-3,6-dicarboxamide], for which the concentration for half-maximal inhibition (IC50) on PKMYT1 was < 50 nM; in test [1] (Homo sapiens, HCC1806, 4 h) it was 50 to 500 nM. As to `CCn1cnc2c(-c3c(C)ccc(O)c3C)c(N)c(C(N)=O)nc21` (atropisomer, axis not shown; (P)) [Compound 81, (P)-6-amino-3-ethyl-7-(3-hydroxy-2,6-dimethylphenyl)-3H-imidazo[4,5-b]pyridine-5-carboxamide], the IC50 at PKMYT1 is < 50 nM; in test [1] (Homo sapiens, HCC1806, 4 h) it was < 50 nM.

With `Cc1c(O)cccc1-c1c(N)c(C(N)=O)nc2c1c(C#N)nn2C` (single isomer, unassigned) [Compound 59, (P)-5-amino-3-cyano-4-(3-hydroxy-2-methylphenyl)-1-methyl-1H-pyrazolo[3,4-b]pyridine-6-carboxamide], the 50% inhibitory concentration (IC50) is 1000 to 5000 nM on PKMYT1 and ≥ 5000 nM in test [1]. Take `CCn1cc(-n2ccnc2)c2c(-c3c(C)ccc(O)c3C)cc(C(N)=O)nc21` (atropisomer, axis not shown; (P)) [Compound 97, (P)-1-ethyl-4-(3-hydroxy-2,6-dimethylphenyl)-3-(1H-imidazol-1-yl)-1H-pyrrolo[2,3-b]pyridine-6-carboxamide]: the IC50 at PKMYT1 lay in the range of 50 to 500 nM; in test [1] (Homo sapiens, HCC1806, 4 h) it was 1000 to 5000 nM. In the case of `CCn1cc(-c2cn[nH]c2)c2c(-c3cccc(O)c3C)c(N)c(C(N)=O)nc21` (atropisomer, axis not shown; (M)) [Compound 91, (M)-5-amino-1-ethyl-4-(3-hydroxy-2-methylphenyl)-3-(1H-pyrazol-4-yl)-1H-pyrrolo[2,3-b]pyridine-6-carboxamide], the concentration for half-maximal inhibition (IC50) at PKMYT1 is < 50 nM; in test [1] (Homo sapiens, HCC1806, 4 h), < 50 nM.

With `Cc1ccc(O)c(C)c1-c1c(N)c(C(N)=O)nc2c1ncn2C(F)F` (atropisomer, axis not shown; (P)) [Compound 72, (P)-6-Amino-3-(difluoromethyl)-7-(3-hydroxy-2,6-dimethylphenyl)-3H-imidazo[4,5-b]pyridine-5-carboxamide], the IC50 on PKMYT1 is < 50 nM; in test [1] (Homo sapiens, HCC1806, 4 h), < 50 nM. For `Cc1ccc(O)c(C)c1-c1c(N)c(C(N)=O)nc2c1nc(C)n2C(C)C` (single isomer, unassigned) [Compound 84, (P)-6-amino-7-(3-hydroxy-2,6-dimethylphenyl)-3-isopropyl-2-methyl-3H-imidazo[4,5-b]pyridine-5-carboxamide], the IC50 on PKMYT1 is < 50 nM; in test [1] (Homo sapiens, HCC1806, 4 h), < 50 nM. With `Cc1ccc(O)c(C)c1-c1c(N)c(C(N)=O)cc2c1ncn2-c1ncccc1F` (atropisomer, axis not shown; (P)) [Compound 87, (P)-5-amino-1-(3-fluoropyridin-2-yl)-4-(3-hydroxy-2,6-dimethylphenyl)-1H-benzo[d]imidazole-6-carboxamide], the half-maximal inhibitory concentration (IC50) at PKMYT1 is < 50 nM; in test [1] (Homo sapiens, HCC1806, 4 h), < 50 nM. Turning to `CCn1nc(C(=O)NC)c2c(-c3c(C)ccc(O)c3C)c(N)c(C(N)=O)nc21` [Compound 73, 5-Amino-1-ethyl-4-(3-hydroxy-2,6-dimethylphenyl)-N^3-methyl-1H-pyrazolo[3,4-b]pyridine-3,6-dicarboxamide], the half-maximal inhibitory concentration (IC50) at PKMYT1 is < 50 nM; in test [1] (Homo sapiens, HCC1806, 4 h), < 50 nM. Take `Cc1c(O)cccc1-c1c(N)c(C(N)=O)cn2ccnc12` (single isomer, unassigned) [Compound 45]: the IC50 on PKMYT1 is ≥ 5000 nM; in test [1] (Homo sapiens, HCC1806, 4 h), ≥ 5000 nM. Turning to `Cc1ccc(O)c(C)c1-c1cc(C(N)=O)nc2c1c(C#N)cn2CC(F)F` (atropisomer, axis not shown; (P)) [Compound 93, (P)-3-cyano-1-(2,2-difluoroethyl)-4-(3-hydroxy-2,6-dimethylphenyl)-1H-pyrrolo[2,3-b]pyridine-6-carboxamide], the IC50 at PKMYT1 was < 50 nM; in test [1] (Homo sapiens, HCC1806, 4 h), < 50 nM. Consider `Cc1c(O)cccc1-c1c(N)c(C(N)=O)nc2c1c(Br)nn2C` [Compound 57, 5-Amino-3-bromo-4-(3-hydroxy-2-methylphenyl)-1-methyl-1H-pyrazolo[3,4-b]pyridine-6-carboxamide], for which the IC50 was in the range of 50 to 500 nM on PKMYT1 and 50 to 500 nM in test [1] (Homo sapiens, HCC1806, 4 h). Regarding `Cc1c(Cl)cncc1-c1c(N)c(C(N)=O)nc2c1c(C#N)cn2C` [Compound 11], at PKMYT1, the IC50 is < 50 nM. Take `Cc1ccc(O)c(C)c1-c1cc(C(N)=O)nc2c1c(C#N)c(C)n2C` (single isomer, unassigned) [Compound 34]: on PKMYT1, the half-inhibitory concentration (IC50) is < 50 nM.

For the compound `Cc1ccc(O)c(C)c1-c1cc(C(N)=O)nc2c1c(Cl)cn2C` (single isomer, unassigned) [Compound 32], the IC50 on PKMYT1 lay within 50 to 500 nM.

Take `Cc1c(Cl)cncc1-c1c(N)c(C(N)=O)nc2c1c(C#N)cn2C` [Compound 10]: the IC50 at PKMYT1 fell in the range of 50 to 500 nM.

As to `Cc1ccc(O)c(C)c1-c1cc(C(N)=O)nc2c1c(C#N)c(C)n2C` (single isomer, unassigned) [Compound 33], the IC50 on PKMYT1 fell in the range of 1000 to 5000 nM. Same read-out and setting: next, `Cc1ccc(O)c(C)c1-c1cc(C(N)=O)nc2c1c(Cl)cn2C` (single isomer, unassigned) [Compound 31]: ≥ 5000 nM.
